According to patent publication US20230240300A1, “NANO[…] MATERIAL BASED ON NIOBIUM OLIGOMERS, OBTENTION METHOD, AND USE” (UNIVERSIDADE FEDERAL DE MINAS GERAIS, priority 2020, published 2023):

Tested on: coronavirus
Experiment: viral load reduction study, compound mixed with virus suspension
Format: cell-based
Conditions: eight parts compound mixed with one part virus suspension, room temperature, 10 min contact; FIG. 4(A)
Experimental: For viral load reduction studies directly employing the coronavirus, eight parts of the compound were adapted to room temperature (RT) and mixed with one part of the virus suspension. Immediately after incubation for defined periods at room temperature, the mixture was diluted 1:10. After four days of incubation at 37° C. in a CO2 incubator, cells were microscopically examined for virus-specific cytopathogenic effects after 10 min of virus contact with the niobium compound. All tests were performed in triplicate.
Initially, exploratory studies were carried out with different proportions of the compounds and with the materials separately. […] In fact, the results of samples S10 (representing a solution containing pure CTAB dissolved in water) and S12 (sample containing the same content of CTAB reacted with niobium), clearly indicate the potentiated effect of the Nb-CTAB species.

## CCCCCCCCCCCCCCCC[N+](C)(C)C.[Br-] [CTAB, hexadecyltrimethylammonium bromide]
  viral load reduction: approximately 30%
